Data: US8568690B2, “MRI contrast agents and high-throughput screening by MRI” (The Board of Trustees of the University of Illinois, priority 2007, dated 2013)

What was measured:
[1] = tested on: adenosine aptamer (linker-Adap) CLIO sensor; test: Adenosine aptamer CLIO sensor, T2 weighted MRI and T2 relaxation time; type: binding; settings: for change in contrast of sensor (selectivity control): sensor incubated with 5 mM nucleoside
Procedure: SPIO nanoparticles were chosen as the contrast agents to functionalize by aptamers since it is efficient at dephasing the spins of neighboring water protons, leading to change in T2 [36, 37]. It has also been shown that oligonucleotide functionalized cross-linked dextran coated superparamagnetic iron oxide nanoparticles (CLIOs) form clusters when linked with a complementary sequence. The adenosine sensor comprised CLIO aggregates that are prepared using three components: CLIO functionalized with 3′- or 5′-thiol modified DNA, called 3′Adap-CLIO and 5′Adap-CLIO respectively and a linker DNA, called linker-Adap that can hybridize to both the 3′- and 5′Adap-CLIOs, leading to the formation of clusters.
One segment of the linker is the sequence for the adenosine aptamer. Seven bases of this aptamer are involved in the hybridization with the 5′Adap-CLIO. In the presence of adenosine the aptamer undergoes structure switching in order to form the adenosine binding pocket, which results in disruption of base pairing interactions with 5′Adap-CLIO. The five remaining base pairs between the linker-Adap and the 5′Adap-CLIO are not enough to hold them together at room temperature leading to disassembly of clusters. The dispersed nanoparticles result in a higher T2 as compared to the clusters; and thus the adenosine induced disassembly can be monitored as an increase in T2 values and enhancement in brightness of T2 weighted MRI images.
The prepared sensor was then aliquoted into the wells of a microplate, with progressively increasing amount of adenosine and a T2 weighted MRI image was obtained. An increase in adenosine concentration led to an increase in the brightness of the image, as illustrated in line a) of FIG. 6. This increase was attributed to the increase in T2 due to disassembly of CLIO clusters into smaller particles. It is worth noting that even at 10 μM adenosine a detectable change in contrast was observed.
250 μl of sample was aliquoted into the wells of a microplate and varying amounts of adenosine was added in each well. The samples with serum were prepared by adding 10% human serum. Volume change was compensated by addition of distilled water.

[2] = target: Adenosine Deaminase (ADA) (Bos taurus, UniProt P56658); settings: adenosine and test molecule, tris-acetate buffer pH 8.0 (FIG. 19) and human serum (FIG. 20)
Chain of Adenosine Deaminase (ADA) (P56658 whole entry): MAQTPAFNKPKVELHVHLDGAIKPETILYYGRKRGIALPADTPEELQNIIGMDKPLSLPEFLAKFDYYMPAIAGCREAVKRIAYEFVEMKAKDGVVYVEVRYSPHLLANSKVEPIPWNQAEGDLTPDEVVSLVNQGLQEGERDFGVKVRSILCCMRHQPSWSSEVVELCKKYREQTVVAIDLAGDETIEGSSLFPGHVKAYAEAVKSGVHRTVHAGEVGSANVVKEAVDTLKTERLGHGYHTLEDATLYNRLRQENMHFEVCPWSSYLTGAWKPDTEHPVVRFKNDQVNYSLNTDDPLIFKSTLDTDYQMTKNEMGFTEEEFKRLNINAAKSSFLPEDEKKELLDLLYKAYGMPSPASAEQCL
Procedure: The screening of ADA inhibitors can be monitored with an aptamer system whereby an MRI signal is generated when a molecule inhibits the ADA.
For example, an aggregate of paramagnetic particles can be used to monitor the screening. To this end, a mixture including paramagnetic particles that are attached to oligonucleotides is prepared. A bridge including an aptamer that binds adenosine is also present in the mixture. If the tested molecule is not effective in inhibiting ADA, adenosine is transformed into inosine, and the complementary portions of the oligonucleotides are hybridized to the bridge. Aggregation of the particles into an aggregate follows, and an increase in MRI contrast is not observed.
The resulting dehybridization leads to deaggregation of the aggregate, generating an MRI signal (FIG. 18).
The screening was monitored by incubating with aggregates that included CLIO nanoparticles attached to polynucleotides and a bridge comprising an ADA-binding aptamer. The screening of FIG. 19 was carried out in the presence of tris-acetate buffer at pH 8.0. […]
T2-weighted MRI images were obtained on a 4.7 T NMR instrument using a spin echo pulse sequence with variable echo time (TE=20−100 ms) and a repetition time (TR) of 2000 ms. Relaxation times were measured on the same instrument with the Carr-Purcell-Meiboom-Gill (CPMG) pulse sequence.

Nc1ncnc2c1ncn2[C@@H]1O[C@H](CO)[C@@H](O)[C@H]1O [adenosine, Adenosine]
MRI contrast of sensor in serum ([1]; 10% human serum, adenosine concentration gradient): the contrast within the concentration gradient increases
adenosine concentration at which a detectable change in contrast was observed ([1]; T2 weighted MRI image, sensor ~20 μg Fe ml-1): 10 µM
T2 relaxation time of sensor ([1]; at 2.5 Mm adenosine, 36 ms at 0 adenosine): 63 ms

Nc1ccn([C@@H]2O[C@H](CO)[C@@H](O)[C@H]2O)c(=O)n1 [control molecule 37, Cytidine]
change in contrast of sensor (selectivity control) [1]: a significant change in contrast was not observed

Nc1nc2c(ncn2[C@@H]2O[C@H](CO)[C@@H](O)[C@H]2O)c(=O)[nH]1 [guanosine]
change in contrast of sensor (selectivity control) [1]: a significant change in contrast was not observed

O=c1ccn([C@@H]2O[C@H](CO)[C@@H](O)[C@H]2O)c(=O)[nH]1 [uridine]
change in contrast of sensor (selectivity control) [1]: a significant change in contrast was not observed

erythro-9-(2-hydroxy-3-nonyl)adenine hydrochloride [EHNA]
ADA inhibition read as deaggregation of aggregates / increase in MRI brightness [2]: inhibited the conversion of adenosine into inosine
